Assay results published in US5087627A, “Agent for treatment of disorders of the cerebro-neural transmission system” (Santen Pharmaceutical Co., Ltd., priority 1989, dated 1992).
Counter-ions that a name gives are not always drawn. Like-named read-outs stand apart in the source and are kept apart here.

Key:
[1] = system: CXM - induced amnesia (impairment of memory); set-up: species or system mice; conditions: mouse, in vivo
[2] = system: PCA - induced amnesia (impairment of memory); assay: one-trial passive avoidance test in mice, PCA - induced amnesia model
5-HT2 receptor = biological target: T1, 5-HT2 receptor (Oryctolagus cuniculus, UniProt G1SYA7); assay: antagonistic test against 5-HT2 using vessel (thoracic aorta) of rabbit, 5-HT-induced contraction; set-up: species or system tissue, rabbit (Japanese white)
T1 construct: The isolated arteries were helically cut into strips; from tissue; host or cells: thoracic aorta of Japanese white rabbit (helical strips)
T1 sequence (G1SYA7 1-469): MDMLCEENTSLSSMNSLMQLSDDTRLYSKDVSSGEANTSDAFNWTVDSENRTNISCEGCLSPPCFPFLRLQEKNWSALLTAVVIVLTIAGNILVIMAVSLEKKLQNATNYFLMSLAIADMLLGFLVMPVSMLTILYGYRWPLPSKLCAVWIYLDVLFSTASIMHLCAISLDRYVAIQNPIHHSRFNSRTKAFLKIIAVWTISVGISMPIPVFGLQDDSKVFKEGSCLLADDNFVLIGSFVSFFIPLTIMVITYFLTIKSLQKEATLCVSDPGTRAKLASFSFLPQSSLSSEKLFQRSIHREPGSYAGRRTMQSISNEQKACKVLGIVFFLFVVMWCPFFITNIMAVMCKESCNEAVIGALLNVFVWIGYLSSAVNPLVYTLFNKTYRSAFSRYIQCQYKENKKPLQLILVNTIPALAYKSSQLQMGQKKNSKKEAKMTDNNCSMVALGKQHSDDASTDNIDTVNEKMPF
Method: Therefore, in this test, the efficacy of the Compound was examined using thoracic aorta of rabbit.
Japanese white rabbits were sacrificed by cervical fracture and exsanguinated. Thoracic aortas were exciesd rapidly. The isolated arteries were helically cut into strips, approximately 3 mm wide, and suspended in 20 ml organ bath chambers containing Krebs-Henseleit solution. Resting tensions of aortas were maintained in 1.5 g. The organ bath chambers were maintained at 37° C. and aerated continuously with 95% O2 -5% CO2.
After equilibration, 5-HT (10^-6 M) was added into each organ bath chamber. After the 5-HT-induced contraction was ascertained to be constant and reproducible, each test compound were added and 30 minutes after 5-HT was added again, and their effect on 5-HT induced contraction was examined.
The contraction was measured with various concentrations of the test compound. According to the difference between the contraction caused by pre-treatment with the test compound and by 5-HT alone, the concentration which can inhibit 50% of the contraction caused by 5-HT alone was calculated (IC50).

[3] = in words, prior art; cited from earlier work

In the case of `c1ccc(CC(c2ccccc2)N2CCN(CCOc3ccc4c(c3)OCO4)CC2)cc1` (racemic) [compound No. 7, (±)-1-(1,2-Diphenyl)ethyl-4-[2-(3,4-methylenedioxyphenoxy)ethyl]piperazine dihydrochloride], the “step-down latency (median)” value [1] is reported as 123.9 s, the “step-down latency (median)” value ([2]; mouse, in vivo) is reported as 155.1 s and the IC50 (5-HT2 receptor) is reported as 2.7 µM.

With `COc1ccc(CCN2CCN(C(Cc3ccccc3)c3ccncc3)CC2)cc1OC` (racemic) [compound 8, (±)-1-[2-Phenyl-1-(4-pyridyl)ethyl]-4-[2-(3,4-dimethoxyphenyl)ethyl]piperazine dioxalate] the IC50 (5-HT2 receptor) was 7 µM.

In the case of `Fc1ccc(CC(c2ccc(F)cc2)N2CCN(CCOc3ccc4c(c3)OCO4)CC2)cc1` (racemic) [compound No. 10, (±)-1-[1,2-Bis(4-fluorophenyl)]ethyl-4-[2-[(3,4-methylenedioxy)phenoxy]ethyl]piperazine dihydrochloride], the “step-down latency (median)” value ([2]; PCA 5 mg/kg i.p., test compound 1.25 mg/kg p.o., 24 h after training, cut off 300 sec) is reported as 206.3 s and the IC50 (5-HT2 receptor; rabbit thoracic aorta strips, 5-HT 10^-6 M, 30 minutes pre-treatment, 37° C., read-out: IC50 (concentration which can inhibit 50% of the contraction caused by 5-HT alone)) is reported as 2.1 µM.

`c1ccc(CC(c2cccnc2)N2CCN(CCOc3ccc4c(c3)OCO4)CC2)cc1` (racemic) [compound 9, (±)-1-[(2-Phenyl)-1-(3-pyridyl)ethyl]-4-[2-(3,4-methylenedioxyphenoxy)ethyl]piperazine dioxalate] showed an IC50 (5-HT2 receptor) of 4.8 µM.

For `CN(C)C(Cc1ccccc1)c1ccccc1` (single isomer, unassigned; (-)) [lefetamine, (-)-N,N-dimethyl-1,2-diphenylethylamine], the analgesic effect [3] is given as “excellent analgesic effect”.
